Test results as given in publication PMC10903759 (Journal of Genetic Engineering & Biotechnology, 2024).
Where no end group is shown, it is not given here.

Test system: leaf rust (Puccinia triticina, CCDS-96-14-1 isolate) urediniospores
Type: cell-based

KEICCKELTKPVKCSSDPLCQKLCMEKEKYEDGHCFTILSKCLCMKRCNAKTLATELLA (disulfide (positions not given here)) [CaThi]
germination rate of urediniospores: 22.73 % ± 7.39
